In one test the target is Wild-type RET kinase (Homo sapiens, UniProt P07949). Briefly: HTRF method for testing the inhibitory activity of compounds against RET. It is filed as biochemical. A general note: Time-resolved FRET reads energy transfer from a long-lived donor to a nearby acceptor.
In another test the target is T1, Ba/F3-KIF5B-RET cell (Homo sapiens, UniProt P07949).
T1 construct: fused on or other part: P33176 (Kinesin-1 heavy chain)
The test can be described thus: CellTiter-Glo luminescence assay, inhibitory activity against Ba/F3-KIF5B-RET cell. It is filed as cell-based. The source says:
(C) In Vitro Screening Experiment - CellTiter-Glo Luminescence Assay for Testing The inhibitory activity of compounds against Ba/F3-KIF5B-RET cell
• 1. The mammalian cell expression vector containing human KIF5B-RET cDNA was introduced into Ba/F3 cells using the Neon® transfection system method, and the surviving clones screened by puromycin were subjected to cell growth inhibitory function experiments and Western blotting to verify cell lines with stable and high expression of RET. • 2. Cells were cultured in RPMI 1640 medium containing 10% fetal bovine serum, 1% penicillin-streptomycin, and 2 µg/mL puromycin, and then placed in a 37° C., 5% carbon dioxide cell incubator. • 3. The test compound (5 mM stock) was diluted 2.5 folds to […] with 100% dimethyl sulfoxide; and the compound was diluted into 10 concentrations at an equal ratio of 1:3 in a 384-well dilution plate. • 4. 0.2 µL of the serially diluted compound was added to a 384-well cell culture plate (Corning, 3570) using an Echo 550 pipetting system, 2 replicate wells for each concentration, and the final concentration of dimethyl sulfoxide was 0.5% (v/v). The gradient concentrations of the test compound were 5000, 1666.7, 555.5, 185.18, 61.72, 20.57, 6.858, 2.286, 0.764, 0.254 nM. • 5. 40 µL of Ba/F3-KIF5B-RET cell suspension containing 800 cells was added to each well, and incubated for 72 h in a 5% CO2 cell incubator. • 6. 20 µL of Cell Titer-Glo reagent was added to each well of the cell culture plate, and the culture system was then shaken and mixed thoroughly for 2 min to lyse the cells, the cells were then incubated at room temperature for 30 min, and the […] signal values were then read with an Envision 2104 microplate reader. • 7. By fitting the data with XLFit 5.0 based on the parameters formula, the IC50 value was calculated as: • [formula]
A general note: ATP-based viability assays read luminescence as a measure of living cells.

Where [1] appears, read: read-out: Ba/F3-KIF5B-RET cell activity, 72 h.
Where [2] appears, read: HTRF, read-out: Wild-type RET kinase.
Where [3] appears, read: 72 h, read-out: Ba/F3-KIF5B-RET cell activity.

Like-named read-outs stand apart in the source and are kept apart here.

Chain of Wild-type RET kinase (P07949 29-1114): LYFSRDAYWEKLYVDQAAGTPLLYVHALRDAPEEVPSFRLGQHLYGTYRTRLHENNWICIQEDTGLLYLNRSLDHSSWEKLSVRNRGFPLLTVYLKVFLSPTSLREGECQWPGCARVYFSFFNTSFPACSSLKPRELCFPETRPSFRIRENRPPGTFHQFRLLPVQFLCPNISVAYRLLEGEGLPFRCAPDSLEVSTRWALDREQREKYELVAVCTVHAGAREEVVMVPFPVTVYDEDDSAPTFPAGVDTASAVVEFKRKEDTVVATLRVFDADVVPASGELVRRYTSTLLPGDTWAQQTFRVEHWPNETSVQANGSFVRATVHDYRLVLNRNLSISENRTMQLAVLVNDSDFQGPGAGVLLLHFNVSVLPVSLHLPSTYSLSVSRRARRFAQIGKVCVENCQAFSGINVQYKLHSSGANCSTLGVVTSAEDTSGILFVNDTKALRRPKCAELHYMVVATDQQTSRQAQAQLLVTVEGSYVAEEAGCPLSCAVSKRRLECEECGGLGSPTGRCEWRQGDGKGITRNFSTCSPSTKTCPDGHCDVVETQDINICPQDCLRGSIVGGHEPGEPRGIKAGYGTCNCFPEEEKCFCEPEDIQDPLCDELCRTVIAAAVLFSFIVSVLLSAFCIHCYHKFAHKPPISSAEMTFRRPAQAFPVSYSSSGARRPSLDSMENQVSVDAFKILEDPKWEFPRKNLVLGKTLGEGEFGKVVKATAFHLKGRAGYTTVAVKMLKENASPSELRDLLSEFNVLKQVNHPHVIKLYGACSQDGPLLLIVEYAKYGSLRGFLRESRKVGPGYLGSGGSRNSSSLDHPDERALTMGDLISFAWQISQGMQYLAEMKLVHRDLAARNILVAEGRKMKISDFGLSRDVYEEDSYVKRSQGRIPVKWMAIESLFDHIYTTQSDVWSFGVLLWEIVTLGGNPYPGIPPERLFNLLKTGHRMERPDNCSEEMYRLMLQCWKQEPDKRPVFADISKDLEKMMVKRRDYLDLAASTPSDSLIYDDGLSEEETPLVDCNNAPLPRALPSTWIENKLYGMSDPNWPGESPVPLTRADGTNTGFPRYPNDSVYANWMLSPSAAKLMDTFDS
T1 sequence (P07949 whole entry, change not shown, the tested form may be a part): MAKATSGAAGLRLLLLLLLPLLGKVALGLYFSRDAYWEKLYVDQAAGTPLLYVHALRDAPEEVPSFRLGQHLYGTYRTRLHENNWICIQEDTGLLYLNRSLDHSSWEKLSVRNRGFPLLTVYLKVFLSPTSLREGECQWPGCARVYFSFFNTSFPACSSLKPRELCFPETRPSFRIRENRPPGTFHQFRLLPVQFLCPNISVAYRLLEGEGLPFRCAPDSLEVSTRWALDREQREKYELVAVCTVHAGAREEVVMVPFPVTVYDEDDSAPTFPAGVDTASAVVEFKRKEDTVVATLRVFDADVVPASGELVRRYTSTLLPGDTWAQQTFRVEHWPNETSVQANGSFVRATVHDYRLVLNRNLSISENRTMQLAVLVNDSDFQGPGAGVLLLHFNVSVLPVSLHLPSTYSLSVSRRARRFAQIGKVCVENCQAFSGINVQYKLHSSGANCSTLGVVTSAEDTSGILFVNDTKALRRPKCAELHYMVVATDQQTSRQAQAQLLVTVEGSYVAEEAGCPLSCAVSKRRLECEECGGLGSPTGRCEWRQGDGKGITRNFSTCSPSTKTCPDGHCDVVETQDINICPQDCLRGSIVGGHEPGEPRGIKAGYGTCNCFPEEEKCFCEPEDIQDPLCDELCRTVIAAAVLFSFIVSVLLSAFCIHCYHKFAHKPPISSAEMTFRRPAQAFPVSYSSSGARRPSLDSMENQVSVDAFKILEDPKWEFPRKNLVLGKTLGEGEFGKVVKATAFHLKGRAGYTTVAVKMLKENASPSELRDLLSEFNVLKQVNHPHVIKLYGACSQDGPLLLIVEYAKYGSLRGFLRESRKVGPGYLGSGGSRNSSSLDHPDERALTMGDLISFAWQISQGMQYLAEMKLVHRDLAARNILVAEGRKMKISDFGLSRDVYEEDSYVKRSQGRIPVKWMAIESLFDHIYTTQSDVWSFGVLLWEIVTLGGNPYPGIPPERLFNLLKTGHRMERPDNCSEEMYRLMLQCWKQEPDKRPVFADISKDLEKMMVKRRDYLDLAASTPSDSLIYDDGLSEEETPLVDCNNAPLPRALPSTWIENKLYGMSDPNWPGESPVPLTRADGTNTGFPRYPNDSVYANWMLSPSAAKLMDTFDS

On Wild-type RET kinase, `COc1ccc(CN2C3CC2CN(c2cnc(-c4cc(OC(=O)NC(C)C)cn5ncc(C#N)c45)cn2)C3)cn1` [Compound 41, 3-cyano-4-(5-(6-((6-methoxypyridin-3-yl)methyl)-3,6-diazabicyclo[3.1.1]heptan-3-yl)pyrazin-2-yl)pyrazolo[1,5-a]pyridin-6-ylisopropylcarbamate] displayed an IC50 of 6.2 nM. At Ba/F3-KIF5B-RET cell (setting [1]), the GI50 worked out at 266 nM.

Compound `COc1ccc(CN2C3CC2CN(c2cnc(-c4cc(OC(=O)N5CCN(C)CC5)cn5ncc(C#N)c45)cn2)C3)cn1` [Compound 26, 3-cyano-4-(5-(6-((6-methoxypyridin-3-yl)methyl)-3,6-diazabicyclo[3.1.1]heptan-3-yl)pyrazin)pyrazolo[1,5-a]pyridin-6-yl 4-methylpiperazine-1-carboxylate] registered an IC50 on Wild-type RET kinase of 12.7 nM. At Ba/F3-KIF5B-RET cell (setting [1]), the GI50 was determined as 64.2 nM. On to `COc1ccc(CN2C3CC2CN(c2cnc(-c4cc(OCCN5CCCC56CNC6)cn5ncc(C#N)c45)cn2)C3)cn1` [Compound 23, 6-(2-(2,5-diazaspiro[3.4]octan-5-yl)ethoxy)-4-(5-(6-((6-methoxypyridin-3-yl)methyl)-3,6-diazabicyclo[3.1.1]heptan-3-yl)pyrazin-2-yl)pyrazolo[1,5-a]pyridine-3-carbonitrile], for which the IC50 at Wild-type RET kinase (setting [2]) was 1.35 nM. Besides, at Ba/F3-KIF5B-RET cell (setting [3]), the GI50 was 1130 nM.

In the case of `COc1ccc(CN2C3CC2CN(c2cnc(-c4cc(OCCN5CCC6(CCCCC6)CC5)cn5ncc(C#N)c45)cn2)C3)cn1` [Compound 24, 6-(2-(3-azaspiro[5.5]undecane-3-yl)ethoxy)-4-(5-(6-((6-methoxypyridin-3-yl)methyl)-3,6diazabicyclo[3.1.1]heptan-3-yl)pyrazin-2-yl)pyrazolo[1,5-a]pyridine-3-carbonitrile], the IC50 on Wild-type RET kinase (setting [2]) came to 2.19 nM. For the same compound, the GI50 at Ba/F3-KIF5B-RET cell (setting [3]) is 21.3 nM. As to `COc1ccc(CN2C3CC2CN(c2cnc(-c4cc(OCCN5CCC6(CCCO6)CC5)cn5ncc(C#N)c45)cn2)C3)cn1` [Compound 25, 6-(2-(1-oxa-8-azaspiro[4.5]dec-8-yl)ethoxy)-4-(5-(6-((6-methoxypyridin-3-yl)methyl)-3,6-diazabicyclo[3.1.1]heptan-3-yl)pyrazin-2-yl)pyrazolo[1,5-a]pyridine-3-carbonitrile], the IC50 at Wild-type RET kinase (setting [2]) turned out to be 2.89 nM. In addition, the GI50 on Ba/F3-KIF5B-RET cell (setting [3]) was 27.7 nM. Consider `COc1ccc(CN2C3CC2CN(c2cnc(-c4cc(OCCN5CC6CCCNC6C5)cn5ncc(C#N)c45)cn2)C3)cn1` (centres unmarked) [Compound 17, 4-(5-(6-((6-methoxypyridin-3-yl)methyl)-3,6-diazabicyclo[3.1.1]hept-3-yl)pyrazin-2-yl)-6-(2-(octahydro-6H-pyrrole[3,4-b]pyridin-6-yl)ethoxy)pyrazolo[1,5-a]pyridine-3-carbonitrile], for which the IC50 on Wild-type RET kinase (setting [2]) was found to be 0.32 nM. Further, the GI50 on Ba/F3-KIF5B-RET cell (setting [3]) turned out to be 61.1 nM.

With `COc1ccc(CN2C3CC2CN(c2cnc(-c4cc(OCCN5CC6(CCCOC6)C5)cn5ncc(C#N)c45)cn2)C3)cn1` [Compound 33, 6-(2-(6-oxa-2-azaspiro[3.5]non-2-yl)ethoxy)-4-(5-(6-((6-methoxypyridin-3-yl)methyl)-3,6-diazabicyclo[3.1.1]heptan-3-yl)pyrazin-2-yl)pyrazolo[1,5-a]pyridine-3-carbonitrile], the IC50 on Wild-type RET kinase (setting [2]) was determined as 5.73 nM. In addition, on Ba/F3-KIF5B-RET cell (setting [3]), the GI50 was 26 nM.

Consider `CCNC(=O)c1cnn2cc(-c3cnn(C)c3)cc(-c3ccc(N4CCN(c5ccc(OC)nc5)CC4)nc3)c12` [Compound 3, N-ethyl-4-(6-(4-(6-methoxypyridin-3-yl)piperazin-1-yl)pyridin-3-yl)-6-(1-methyl-1H-pyridinoxazol-4-yl)H-pyrazolo[1,5-a]pyridine-3-carboxamide], for which the IC50 on Wild-type RET kinase (setting [2]) was more than 10000 nM. On to `COc1ccc(CN2CCN(c3ccc(-c4cc(OCCN5CC6CCC5C6)cn5ncc(C#N)c45)cn3)CC2)cn1` (centres unmarked) [Compound 15, 6-(2-(2-azabicyclo[2.2.1]hept-2-yl)ethoxy)-4-(6-(4-((6-methoxypyridin-3-yl)methyl)piperazin-1-yl)pyridin-3-yl)pyrazolo[1,5-a]pyridine-3-carbonitrile], for which the IC50 on Wild-type RET kinase (setting [2]) came out at 1.4 nM. Besides, the GI50 at Ba/F3-KIF5B-RET cell (setting [3]) amounted to 225 nM. `CCNC(=O)Oc1cc(-c2cnc(N3CC4CC(C3)N4Cc3ccc(OC)nc3)cn2)c2c(C#N)cnn2c1` [Compound 42, 3-cyano-4-(5-(6-((6-methoxypyridin-3-yl)methyl)-3,6-diazabicyclo[3.1.1]heptan-3-yl)pyrazin-2-yl)pyrazolo[1,5-a]pyridin-6-ylethylcarbamate] returned an IC50 at Wild-type RET kinase of 9.2 nM.

For `COc1ccc(CN2CCN(c3ccc(-c4cc(-c5cnn(C)c5)cn5ncc(NC(=O)c6cncn6C)c45)cn3)CC2)cn1` [Compound 12, N-(4-(6-(4-((6-methoxypyridin-3-yl)methyl)piperazin-1-yl)pyridin-3-yl)-6-(1-methyl-1H-pyrazol-4-yl)pyrazolo[1,5-a]pyridin-3-yl)-1-methyl-1H-imidazole-5-carboxamide], the IC50 on Wild-type RET kinase (setting [2]) is more than 10000 nM. Regarding `COc1ccc(CN2CCN(c3ccc(-c4cc(-c5cnn(C)c5)cn5ncc(C(=O)NC(C)C)c45)cn3)CC2)cn1` [Compound 5], on Wild-type RET kinase (setting [2]), the IC50 was more than 10000 nM. Turning to `COc1ccc(CN2CCN(c3ccc(-c4cc(-c5cnn(C)c5)cn5ncc(NC(=O)c6ccccc6)c45)cn3)CC2)cn1` [Compound 11, N-(4-(6-(4-((6-methoxypyridin-3-yl)methyl)piperazin-1-yl)pyridin-3-yl)-6-(1-methyl-1H-pyrazol-4-yl)pyrazolo[1,5-a]pyridin-3-yl)benzamide], the IC50 at Wild-type RET kinase (setting [2]) is more than 10000 nM.

With `COc1ccc(CN2C3CC2CN(c2ccc(-c4cc(NCC5CCOC5)cn5ncc(C#N)c45)cn2)C3)cn1` (centres unmarked) [Compound 65, 4-(6-(6-((6-methoxypyridin-3-yl)methyl)-3,6-diazabicyclo[3.1.1]heptyl-3-yl)pyridin-3-yl)-6-(((tetrahydrofuran-3-yl)methyl)amino)pyrazolo[1,5-a]pyridine-3-carbonitrile], the IC50 on Wild-type RET kinase (setting [2]) amounted to 6.05 nM. Same read-out and setting: with `COc1ccc(CN2C3CC2CN(c2ccc(-c4cc(NCC5CCCCC5)cn5ncc(C#N)c45)cn2)C3)cn1` [Compound 60, 6-((cyclohexylmethyl)amino)-4-(6-(6-((6-methoxypyridin-3-yl)methyl)-3,6-diazabicyclo[3.1.1]heptan-3-yl)pyridin-3-yl)pyrazolo[1,5-a]pyridine-3-carbonitrile] the figure was 29.6 nM; with `CNC(=O)Nc1cnn2cc(-c3cnn(C)c3)cc(-c3ccc(N4CCN(Cc5ccc(OC)nc5)CC4)nc3)c12` [Compound 9, 1-(4-(6-(4-((6-methoxypyridin-3-yl)methyl)piperazin-1-yl)pyridin-3-yl)-6-(1-methyl-1H -pyrazol-4-yl)pyrazolo[1,5-a]pyridin-3-yl)-3-methylurea], more than 10000 nM. For the compound `COc1ccc(CN2C3CC2CN(c2ccc(-c4cc(NCC5CCN(C)CC5)cn5ncc(C#N)c45)cn2)C3)cn1` [Compound 64], on Wild-type RET kinase (setting [2]), the IC50 was 4.83 nM. On to `COc1ccc(CN2C3CC2CN(c2ccc(-c4cc(NCC5CCOCC5)cn5ncc(C#N)c45)cn2)C3)cn1` [Compound 54, 4-(6-(6-((6-methoxypyridin-3-yl)methyl)-3,6-diazabicyclo[3.1.1]heptyl-3-yl)pyridin-3-yl)-6-(((-2H-pyran-4-yl)methyl)amino)pyrazolo[1,5-a]pyridine-3-carbonitrile], for which, on Wild-type RET kinase (setting [2]), the IC50 amounted to 2.76 nM. On to `COc1ccc(CN2C3CC2CN(c2cnc(-c4cc(N(C)CCN(C)C)cn5ncc(C#N)c45)cn2)C3)cn1` [Compound 58, 6-((2-(dimethylamino)ethyl)(methyl)amino)-4-(5-(6-((6-methoxypyridin-3-yl)methyl)-3,6-diazabicyclo[3.1.1]heptan-3-yl)pyrazin-2-yl)pyrazolo[1,5-a]pyridine-3-carbonitrile], for which, at Wild-type RET kinase (setting [2]), the IC50 amounted to 10.4 nM. As for `COc1ccc(CN2CCN(c3ccc(-c4cc(-c5cnn(C)c5)cn5ncc(NC(=O)C6CC6)c45)cn3)CC2)cn1` [Compound 10, N-(4-(6-(4-((6-methoxypyridin-3-yl)methyl)piperazin-1-yl)pyridin-3-yl)-6-(1-methyl-1H-pyrazol-4-yl)pyrazolo[1,5-a]pyridin-3-yl)cyclopropanecarboxamide], on Wild-type RET kinase (setting [2]), the IC50 is more than 10000 nM.

For the compound `COc1ccc(CN2C3CC2CN(c2cnc(-c4cc(NCC5CC5)cn5ncc(C#N)c45)cn2)C3)cn1` [Compound 53], the IC50 on Wild-type RET kinase (setting [2]) was determined as 5.54 nM. As for `COc1ccc(CN2C3CC2CN(c2ccc(-c4cc(OCC(C)(C)O)cn5ncc(C#N)c45)cn2)C3)cn1` [LOXO-292, reference compound], the GI50 at Ba/F3-KIF5B-RET cell (setting [3]) is 7.08 nM.

In the case of `COc1ccc(CN2CCN(c3ccc(-c4cc(-c5cnn(C)c5)cn5ncc(NC(C)=O)c45)cn3)CC2)cn1` [Compound 4, N-(4-(6-(4-((6-methoxypyridin-3-yl)methyl)piperazin-1-yl)pyridin-3-yl)-6-(1-methyl-1H-pyrazol-4-yl)pyrazol[1,5-a]pyridin-3-yl)acetamide], at Wild-type RET kinase (setting [2]), the IC50 was determined as 6590 nM.

Regarding `CNC(=O)c1cnn2cc(-c3cnn(C)c3)cc(-c3ccc(N4CCN(Cc5ccc(OC)nc5)CC4)nc3)c12` [Compound 6], the IC50 on Wild-type RET kinase (setting [2]) worked out at 678 nM.

The values are drawn from patent US20230219979A1, “PYRAZOLO[1,5-a]PYRIDINE COMPOUND, PREPARATION METHOD THEREFOR AND USE THEREOF” (SHENZHEN ZHONGGE BIOLOGICAL TECHNOLOGY CO., LTD., priority 2019, published 2023).
